Experimental data published in article PMC7465040, “Cytotoxic and Anti-Plasmodial Activities of Stephania dielsiana Y.C. Wu Extracts and the Isolated Compounds” (Molecules, 2020).
Where two headings read alike, the source gives them in different places.

Columns and labels:
MDA-MB-468 = assay: SRB cell proliferation assay, MDA-MB-468; type: cell-based, human
Procedure: (§1) In vitro anticancer study: The in vitro anti-proliferative tests were carried out as described previously, using aliquots of the cell lines used therein. Briefly, HeLa, MDA-MB-231 and MDA-MB-468, MCF7, and 184B5 and MCF 10A cell lines were purchased from ATCC. The identity of the cell lines presented in this study were verified by short tandem repeat profiling by Genetica DNA Laboratories (www.celllineauthentication.com) (April 8, 2015). MCF10A was grown in DMEM F12 medium supplemented with 0.02 μg/mL epidermal growth factor, 10% FBS, 10 μg/mL insulin and […] hydrocortisone. MDA-MB-468 were grown in DMEM supplemented with 10% FBS and antibiotics cocktail (100 μg/mL streptomycin, 100 units/mL penicillin and 250 ng/mL amphotericin B). SRB cell proliferation assays were carried out as previously described, with some minor modifications. The concentration range for all tested cell lines were from 100–0.39 μg/mL for extracts and 100–0.39 μM for pure compounds. […] All experiments were carried out at least twice.

MCF7 = assay: SRB cell proliferation assay, MCF7; type: cell-based, human
Procedure: as §1

[1] = test system: chloroquine-susceptible 3D7 P. falciparum strain; assay: In vitro anti-plasmodial assay (HRP2 ELISA), 3D7; type: cell-based, Plasmodium falciparum; conditions: for IC50: 72 h, HRP2 ELISA, mean of five experiments, read-out: IC50 (μM ± SD) 3D7
Procedure: (§2) Parasites were grown in A-positive human blood (Etablissement Français du Sang, Marseille, France) under controlled atmospheric conditions that consisted of 10% O2, 5% CO2, and 85% N2 at 37 °C with a humidity of 95%.
(§3) In vitro anti-plasmodial assay: The two P. falciparum strains 3D7 and W2 were synchronized twice with sorbitol before use. The clonality of these strains was verified both in our laboratory and in an independent laboratory from the Worldwide Anti-malarial Resistance Network (WWARN) by PCR genotyping of the polymorphic genetic markers msp1 and msp2 and microsatellite loci. The compounds were re-suspended in methanol or DMSO 5% (v/v) and then diluted in methanol to obtain final concentrations ranging from 0.008 to 500 μg/mL (final concentration of 0.5% of methanol or DMSO). […] The plates were incubated for 72 h at 37 °C in controlled atmospheric conditions 5% CO2, 10% O2, and […]. After thawing the plates, haemolysed cultures were homogenized by vortexing the plates. Both the success of the drug susceptibility assay and the appropriate volume of haemolysed culture to use for each assay were determined for each clinical isolate during a preliminary HRP2 ELISA. Both the pre-test and subsequent ELISA assays were performed using a commercial kit (Malaria Ag Celisa, ref KM2159, Cellabs PTY LTD, Brookvale, Australia) according to the manufacturer’s recommendation. The optical density (OD) of each sample was measured with a spectrophotometer (Safire 2, Tecan, Lyon, France). […] The anti-plasmodial in vitro assay was performed five times for each product. The IC50 values represented the mean value calculated from five experiments. According to Hout, a selectivity index (SI) was based on the ratio between anti-parasitic and cytotoxic activities. In the case of our study, a SI was calculated between non-tumorigenic cell line 184B5 and parasites 3D7 or W2 and/or MCF10A and these two parasites.

Aurora B = biological target: T1, Aurora B (Homo sapiens, UniProt Q96GD4); assay: In vitro kinase assay (ADP-Glo), Aurora B; type: biochemical; conditions: ± standard deviation, n = 2
T1 construct: purchased Promega
Procedure: In vitro kinase assay: The Aurora A and B kinase assays were carried out using the Promega ADP-Glo based Kinase Activity Profiling system. The protocols for the Aurora A/(Myelin Basic Protein (MBP) and Aurora B/MBP assay kits were according to those recommended by the suppliers. The concentration range used was from 20 μM–39.1 nM in 384-well plates. The luminescent output from the kinase assay was read on a Biotek Synergy H4 plate reader.

[2] = test system: Plasmodium falciparum 3D7 and W2 strains; assay: In vitro anti-plasmodial assay, both strains; type: cell-based
Procedure: as §2, §3

MDA-MB-231 cells = assay: Annexin V staining / IncuCyte apoptosis and proliferation assay; type: cell-based, human
Procedure: Annexin V staining: Cell death mechanism and cell proliferation assays were analysed using the IncuCyte Apoptosis Assay method using the Annexin V Green reagent (Essen Biosciences, Ann Arbor, MI, USA) and the IncuCyte S3 and IncuCyte ZOOM software (Version 2018B, Bohemia, NY, USA) according to supplier’s protocol. Statistical analysis was carried out in Graph Pad Prism 5. All experiments were carried out at least twice.

[3] = test system: phosphorylation of histone H3 on Ser-10 in HeLa cells; assay: Western blot, histone H3 Ser-10 phosphorylation; type: cell-based, human; conditions: 12 h
Procedure: Western Blot analysis: Western blotting was carried out as described previously. The primary antibodies used were from Cell Signaling (Histone H3; p-Histone H3^S10 and Phospho-Aurora A (Thr288)/Aurora B (Thr232)/Aurora C (Thr198)) and used at recommended dilution. For cell synchronization at prometaphase, HeLa cells were treated with 50 ng/mL nocodazole (NZ) (Santa Cruz Biotechnology) for 12 h. All experiments were carried out at least twice.

T1 sequence (Q96GD4 whole entry): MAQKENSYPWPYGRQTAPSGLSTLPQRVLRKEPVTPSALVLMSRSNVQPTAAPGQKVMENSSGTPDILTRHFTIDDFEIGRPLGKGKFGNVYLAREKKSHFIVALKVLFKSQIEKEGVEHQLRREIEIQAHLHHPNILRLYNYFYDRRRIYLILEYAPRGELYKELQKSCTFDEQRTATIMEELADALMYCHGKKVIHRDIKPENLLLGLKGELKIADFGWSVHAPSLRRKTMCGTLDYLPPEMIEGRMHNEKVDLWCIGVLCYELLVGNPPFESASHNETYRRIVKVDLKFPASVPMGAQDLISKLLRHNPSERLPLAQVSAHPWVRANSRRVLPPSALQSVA

SMILES: COc1cccc2c1C(=O)c1nccc3cc4c(c-2c13)OCO4 [Oxostephanine 1, oxostephanine]
- IC50 (MDA-MB-468; Homo sapiens, MDA-MB-468, Table 2A, SRB, 72 h, read-out: IC50 (μM ± SD) MDA-MB-468): 2.26 ± 0.54 µM
- Selectivity index (SI) 184B5 versus MDA-MB-468 (MDA-MB-468; Table 2B, non-cancer 184B5 vs cancer MDA-MB-468): 0.73
- Selectivity index (SI) MCF10A versus MDA-MB-468 (MDA-MB-468; Table 2B, non-cancer MCF10A vs cancer MDA-MB-468): 1.10
- IC50 (MCF7; Homo sapiens, MCF7, Table 2A, SRB, 72 h, read-out: IC50 (μM ± SD) MCF7): 4.35 ± 1.2 µM
- Selectivity index (SI) 184B5 versus MCF7 (MCF7; Table 2B, non-cancer 184B5 vs cancer MCF7): 0.38
- Selectivity index (SI) MCF10A versus MCF7 (MCF7; Table 2B, non-cancer MCF10A vs cancer MCF7): 0.57
- IC50 [1]: 63.9 ± 18.4 µM
- IC50 ([1]; Plasmodium falciparum, 3D7, 72 h): 63.9 to 276 µM
- SI 3D7 184B5 ([1]; Table 3, selectivity index between 184B5 and parasites 3D7): 0.026
- SI 3D7 MCF10A ([1]; Table 3, selectivity index between MCF10A and parasites 3D7): 0.039
- IC50 (Aurora B): 0.952 ± 0.467 µM
- Anti-plasmodial activity against both 3D7 and W2 (in words) [2]: not active
- Time to inhibition of proliferation (MDA-MB-231 cells; MDA-MB-231): ≤ 12 h
- Apoptotic effect compared to camptothecin (MDA-MB-231 cells; MDA-MB-231, 10 μM, 1-way ANOVA p < 0.05): much stronger apoptotic effect
- Time to start of apoptosis (Annexin V) (MDA-MB-231 cells; MDA-MB-231, post-treatment): ≤ 16 h
- Phosphorylation of histone H3 on Ser-10 [3]: dramatically downregulated
